Read-outs that look alike come from different tables or passages of the source.
How the values were obtained:
[1] = tested on: human colon cancer cell line HT29; assay: CNT (remaining viable cell rate) with doxorubicin, 2D cultures vs 3D cell structures (Example 2); assay type: cell-based; conditions: doxorubicin 10 μM; for CNT (%) Average value: 72 hours
From the text: The anti-cancer drug to be assessed was doxorubicin (product number: 046-21523, produced by Wako Pure Chemical Industries, Ltd.).
After termination of the culture, cell structures in which a cancer cell layer was laminated on a layer having a vascular network structure were obtained.
Moreover, for comparison, in place of the above cell structures, structures were constructed by culturing cancer cells so as to form a single layer in a general culture container (2D method), and the resulting 2D cultures were similarly cultured in the presence of doxorubicin. A vascular network was not formed in the obtained 2D cultures even when cancer cells and vascular endothelial cells were made to coexist.
Next, a suitable amount of tris buffer solution (50 mM, pH: 7.4) was added to the Transwell cell culture insert, and the liquid component was then removed. This series of processes was repeated 3 times. […] Thereafter, all of the solution was collected, and transferred to a 1.5-mL collection tube to which 300 μL of 0.25% trypsin-EDTA solution (produced by Invitrogen) had been previously added. […] Thereafter, all of the solution was collected, and transferred to a 1.5-mL collection tube.

HT29 [2] = assay: CNT with doxorubicin, vascular network in layer shape vs scattered (Example 3); assay type: cell-based, human; conditions: doxorubicin 10 μM, 72 hours
HT29 [3] = assay: CNT with doxorubicin, cell structures with or without semipermeable membrane (Example 9); assay type: cell-based, human; conditions: doxorubicin 10 μM, 72 hours
From the text: The cell structures containing a cell layer containing cancer cells and a cell layer having a vascular network structure used herein were cell structures containing a cell layer in which two types of cells, i.e., NHDF and HUVEC, constituted a multilayer, and a cancer cell layer formed from HT29.
Separately, 2×10^4 HT29 was suspended in a suitable amount of culture medium to prepare a cancer cell suspension (step (a)). The HT29 used was previously fluorescently labeled (product number: PKH67GL, produced by SIGMA).
A cell structure 2 was obtained in the same manner as in the cell structure 1, except that a semipermeable membrane with a pore size of 0.4 μm was placed on a structure containing stromal cells, and a cancer cell suspension was seeded on the semipermeable membrane to form a cancer cell layer. […] In the cell structure 2, the cells constituting the cancer cell layer were completely separated from the cells constituting the stromal cell layer.
A cell structure 3 was obtained in the same manner as in the cell structure 1, except that a cancer cell suspension was first seeded in a Transwell cell culture insert to form a cancer cell layer, a semipermeable membrane with a pore size of 0.4 μm was placed on the cancer cell layer, and a stromal cell suspension was then seeded on the semipermeable membrane to form a stromal cell layer. […] In the cell structure 3, the cells constituting the cancer cell layer were completely separated from the cells constituting the stromal cell layer.
(§1) A cell structure 4 was obtained in the same manner as in the cell structure 2, except that a semipermeable membrane with a pore size of 8 μm was used. […] In the cell structure 4, the cells constituting the cancer cell layer and the cells constituting the stromal cell layer extended to be in contact with each other in the penetration part of the semipermeable membrane.
as §1, with “5” for “4”, “3,” for “2,”, “5,” for “4,”

[4] = tested on: breast cancer cell line MCF-7; assay: CNT with doxorubicin, 2D vs 3D (Example 14); assay type: cell-based, human; conditions: for CNT (%) Average value: 72 hours
From the text: The general cytotoxic anti-cancer drug to be assessed was doxorubicin (product number: 046-21523, produced by Wako Pure Chemical Industries, Ltd.).

[5] = tested on: lung cancer cell line NCI-H820; assay: CNT with oxaliplatin, 2D vs 3D (Example 12); assay type: cell-based, human; conditions: for CNT (%): 72 hours, measured once
Description: (§2) Measurements were performed once for each culture condition.

[6] = tested on: gastric cancer cell line NCI-N87; assay: CNT with oxaliplatin, 2D vs 3D (Example 13); assay type: cell-based, human; conditions: for CNT (%): 72 hours, measured once
Description: as §2

HT29 [7] = conditions: bevacizumab 2 μg per well in the combination, 72 hours
From the text: (§3) The cell structures containing cancer cells and having a vascular network structure used herein were the cell structures produced in Example 5, and the cell culture container, culture media, and bevacizumab used herein were also the same as those used in Example 5.
(§4) After the cell structures were each dispersed in the same manner as in Example 2, and the obtained dispersions were stained with trypan blue, the number of viable cancer cells was counted to calculate CNT (%).

HCT116 = conditions: bevacizumab 2 μg per well in the combination, 72 hours
From the text: as §3, §4

HT29 [8] = conditions: oxaliplatin 100 μg/mL, bevacizumab 2 μg per well in combined use, 72 hours
From the text: (§5) Furthermore, HT29 cells were used as the cancer cells.
(§6) After the cell structures were each dispersed in the same manner as in Example 2, and the obtained dispersions were stained with trypan blue, the number of viable cancer cells was counted to calculate CNT (%). Measurements were repeated three times for each culture condition.

HT29 [9] = conditions: oxaliplatin 100 μg/mL, bevacizumab 2 μg per well in combined use
Description: as §5
Cell structures were produced in the same manner as in Example 5, except that HT29 cells were seeded in a Transwell cell culture insert in which a structure formed from NHDF and HUVEC was formed, centrifugation was performed to remove the liquid component, and the culture time in the CO2 incubator (37° C., 5% CO2) was changed to 24, 48, 72, or 96 hours.
as §6

HT29 [10] = assay: CNT with cetuximab and/or bevacizumab, 2D, spheroid, 3D (Example 4); assay type: cell-based, human; conditions: for CNT (%) Average value / CNT (%) Median value: cetuximab 1 mg/mL and/or bevacizumab 2 μg per well, 72 hours
From the text: Moreover, for comparison, in place of the above cell structures, structures were produced by culturing cancer cells so as to form a single layer in a general culture container (2D method), and spheroids were produced by spheroid culture of a mixture of 2×10^6 NHDF, 3×10^4 HUVEC, and 2×10^4 HT29 (spheroid method).

[11] = regardless of the oxaliplatin concentration
[12] = Spheroid, oxaliplatin 100 μg/mL

## COc1cccc2c1C(=O)c1c(O)c3c(c(O)c1C2=O)C[C@@](O)(C(=O)CO)C[C@@H]3O[C@H]1C[C@H](N)[C@H](O)[C@H](C)O1 [Doxorubicin, doxorubicin]
[1]; 2D, HT29 2 × 10^4 only
  CNT (%) Average value: 6.87%
[1]; 2D, HUVEC 2 × 10^4 + HT29 2 × 10^4
  CNT (%) Average value: 21.40%
[1]; 2D, NHDF 2 × 10^4 + HT29 2 × 10^4
  CNT (%) Average value: 13.20%
[1]; 2D
  effectiveness in 2D culture co-cultured with fibroblasts relative to 2D culture co-cultured with vascular endothelial cells: about two
[1]; 3D cell structures vs 2D culture of only cancer cells and 2D culture of cancer cells and fibroblasts
  CNT of the cell structures relative to 2D culture: at least 5 times
[1]; 3D, NHDF 1 × 10^6 + HUVEC 3 × 10^4 + HT29 2 × 10^4
  CNT (%) Average value: 28.22%
[1]; 3D, NHDF 2 × 10^6 + HT29 2 × 10^4, no vascular network
  CNT (%) Average value: 29.77%
[1]; 3D, NHDF 2 × 10^6 + HUVEC 3 × 10^4 + HT29 2 × 10^4
  CNT (%) Average value: 31.22%
HT29 [2]; cell structure in which a vascular network structure is formed in a layer shape
  CNT (%) Average value: 31.22%
HT29 [2]; cell structure in which a vascular network structure is scattered in the entire structure
  CNT (%) Average value: 31.06%
HT29 [3]; Cell structure 1 (stromal cell layer - cancer cell layer)
  CNT (%) Average value: 31.22%
HT29 [3]; Cell structure 2 (stromal cell layer - semipermeable membrane (0.4 μm) - cancer cell layer)
  CNT (%) Average value: 30.83%
HT29 [3]; Cell structure 3 (cancer cell layer - semipermeable membrane (0.4 μm) - stromal cell layer)
  CNT (%) Average value: 32.68%
HT29 [3]; Cell structure 4 (stromal cell layer - semipermeable membrane (8 μm) - cancer cell layer)
  CNT (%) Average value: 31.47%
HT29 [3]; Cell structure 5 (cancer cell layer - semipermeable membrane (8 μm) - stromal cell layer)
  CNT (%) Average value: 33.03%
[4]; 2D, Doxorubicin 1 μM
  CNT (%) Average value: 38.9%
[4]; 2D, Doxorubicin 10 μM
  CNT (%) Average value: 12.1%
[4]; 3D, Doxorubicin 1 μM
  CNT (%) Average value: 78.4%
[4]; 3D, Doxorubicin 10 μM
  CNT (%) Average value: 48.9%
[4]; regardless of the doxorubicin concentration
  drug sensitivity, cell structures compared with 2D cultures: drug sensitivity was lower

## O=C1[O][Pt]2([NH][C@@H]3CCCC[C@H]3[NH]2)[O]C1=O [Oxaliplatin, oxaliplatin]
[5]; 2D, oxaliplatin 1 μg/mL
  CNT (%): 62.9%
[5]; 2D, oxaliplatin 10 μg/mL
  CNT (%): 21.0%
[5]; 3D, oxaliplatin 1 μg/mL
  CNT (%): 78.2%
[5]; 3D, oxaliplatin 10 μg/mL
  CNT (%): 66.7%
[5]; [11]
  drug sensitivity, cell structures compared with 2D cultures: drug sensitivity was lower
[6]; 2D, oxaliplatin 10 μg/mL
  CNT (%): 22.0%
[6]; 2D, oxaliplatin 100 μg/mL
  CNT (%): 10.3%
[6]; 3D, oxaliplatin 10 μg/mL
  CNT (%): 45.9%
[6]; 3D, oxaliplatin 100 μg/mL
  CNT (%): 17.7%
[6]; [11]
  drug sensitivity, cell structures compared with 2D cultures: drug sensitivity was lower
HT29 [7]; 2D, oxaliplatin 10 μg/mL
  CNT (%) Average value: 39.4%
HT29 [7]; 2D, oxaliplatin 100 μg/mL
  CNT (%) Average value: 16.0%
HT29 [7]; 3D, oxaliplatin 10 μg/mL
  CNT (%) Average value: 63.6%
HT29 [7]; 3D, oxaliplatin 100 μg/mL
  CNT (%) Average value: 31.9%
HT29 [7]; Spheroid, oxaliplatin 10 μg/mL
  CNT (%) Average value: 48.2%
HT29 [7]; [12]
  CNT (%) Average value: 22.3%
HCT116; 2D, oxaliplatin 10 μg/mL
  CNT (%) Average value: 23.8%
HCT116; 2D, oxaliplatin 100 μg/mL
  CNT (%) Average value: 11.3%
HCT116; 3D, oxaliplatin 10 μg/mL
  CNT (%) Average value: 54.1%
HCT116; 3D, oxaliplatin 100 μg/mL
  CNT (%) Average value: 35.6%
HCT116; Spheroid, oxaliplatin 10 μg/mL
  CNT (%) Average value: 51.8%
HCT116; [12]
  CNT (%) Average value: 18.8%
HT29 [8]; HUVEC content 0.05 %, vascular network not formed
  CNT (%) Average value: 30.3%
HT29 [8]; HUVEC content 0.25 %, vascular network formed
  CNT (%) Average value: 33.4%
HT29 [8]; HUVEC content 0.5 %, vascular network formed
  CNT (%) Average value: 35.7%
HT29 [8]; HUVEC content 1.5 %, vascular network formed
  CNT (%) Average value: 33.8%
HT29 [9]; culture time 24 h after lamination of cancer cell layer, 72 hours
  CNT (%) Average value: 36.0%
HT29 [9]; culture time 48 h after lamination of cancer cell layer, 72 hours
  CNT (%) Average value: 36.3%
HT29 [9]; culture time 72 h after lamination of cancer cell layer
  CNT (%) Average value: 37.0%
HT29 [9]; culture time 96 h after lamination of cancer cell layer, 72 hours
  CNT (%) Average value: 33.8%

## bevacizumab
HT29 [10]; 2D cultures and spheroids
  CNT: about 100%
HT29 [10]; 2D
  CNT (%) Average value: 93.9%
  CNT (%) Median value: 99.3%
HT29 [10]; 3D
  CNT (%) Average value: 105.2%
  CNT (%) Median value: 112.7%
HT29 [10]; Spheroid
  CNT (%) Average value: 108.6%
  CNT (%) Median value: 113.8%
HT29 [10]; cell structures of the present Example, 3D
  CNT: about 100%

— patent publication US11249070B2, “Anti-cancer drug assessment method” (TOPPAN PRINTING CO., LTD., priority 2016, dated 2022)
